This experiment concerns the target T1, MDM2 protein (Mus musculus, UniProt P23804).
T1 construct: administered intraperitoneally to C57BL/6J wild-type mice; from tissue; host or cells: C57BL/6J wild-type mice: liver, kidneys, spleen, heart
In words: Degradation of MDM2 protein in each tissue of mouse after administration, Western blot analysis. Particulars: 48 hours after administration. It is filed as in vivo. Here is the method:
TIBC-CANDDY_MLN was dissolved in DMSO immediately before administration, and then dissolved in corn oil (Code No. 25606-55, Nacalai Tesque) so that the concentration of DMSO was 10 vol %, and then a dose of 50 mg/kg body weight or 100 mg/kg body weight was administered intraperitoneally to C57BL/6J wild-type mice (7 to 8 weeks old, male) (CLEA Japan, Inc.) (n=3). As a control, an injection carrier (corn oil containing 10 vol % DMSO) was used. The mice were kept under an environment of ad libitum access to food and water. The mice were dissected under deep anesthesia by Somnopentyl (Kyoritsu Seiyaku Corporation) 48 hours after administration. Abdominal section was performed, and then the liver, kidneys, spleen, and heart were sequentially extracted and flash frozen in liquid nitrogen. Each tissue frozen in liquid nitrogen was stored in a deep freezer at −80° C.
The frozen tissues (spleen: 0.02 g, other tissues: 0.04 g) were each frozen and triturated, and then 1×TKM tissue lysis buffer (50 mM triethanolamine (pH 7.8), 50 mM KCl, 5 mM MgCl2, 0.25 M sucrose, 1 mM PMSF, protein inhibitors cocktail-EDTA free (Code No. 03969-21, Nacalai Tesque), 1 mM DTT, and 5 μL/mL recombinant RNase inhibitor (40 U/μL, Cat No. 2313A, Lot No. K8402DA, TAKARA Bio)) were added in an amount of 490 μL for the spleen and 980 μL for the others, and dissolved by rotation for 15 minutes (1 rpm, 25° C.). Then, the resultant product was subjected to centrifugation (at 3000 rpm×15 minutes, 4° C.), and the supernatants (each tissue extract) was collected. The concentration of proteins in each tissue extract was quantified with a spectrophotometer using each tissue extract that had been diluted 20 times using DEPC-treated water.
Each tissue extract collected was subjected to Western blot analysis. An SDS-PAGE gel was prepared using TGX™ FastCast™ Acrylamide Kit, 12% (Bio-Rad). Electrophoresis samples were prepared in a 6×SDS-PAGE sample buffer (62.5 mM Tris-HCl pH 6.8, 2% SDS, 5% 2-mercaptoethanol, 10% glycerol, 0.25% BPB), and placed on a heat block at 95° C. for 5 minutes. The electrophoresis samples prepared were applied at 50 μg/well for detecting GAPDH, and at 100 μg/well for other detection. […]
After electrophoresis, proteins were transferred to a PVDF membrane (Immobion™-P, Millipore) under conditions of 100 V and 1.5 hours using a tank-type blotting device and a transfer buffer (25 mM Tris-HCl, 195 mM glycine, 0.01% SDS, 15% methanol). […] Subsequently, the membrane was treated with a chemiluminescence reagent Immobilon™ Western (Millipore), and then chemiluminescence was detected using a lumino image analyzer LAS-3000 (FUJIFILM Corporation). Detected bands were quantified with an image processing software ImageJ (NIH).

T1 sequence (P23804 whole entry): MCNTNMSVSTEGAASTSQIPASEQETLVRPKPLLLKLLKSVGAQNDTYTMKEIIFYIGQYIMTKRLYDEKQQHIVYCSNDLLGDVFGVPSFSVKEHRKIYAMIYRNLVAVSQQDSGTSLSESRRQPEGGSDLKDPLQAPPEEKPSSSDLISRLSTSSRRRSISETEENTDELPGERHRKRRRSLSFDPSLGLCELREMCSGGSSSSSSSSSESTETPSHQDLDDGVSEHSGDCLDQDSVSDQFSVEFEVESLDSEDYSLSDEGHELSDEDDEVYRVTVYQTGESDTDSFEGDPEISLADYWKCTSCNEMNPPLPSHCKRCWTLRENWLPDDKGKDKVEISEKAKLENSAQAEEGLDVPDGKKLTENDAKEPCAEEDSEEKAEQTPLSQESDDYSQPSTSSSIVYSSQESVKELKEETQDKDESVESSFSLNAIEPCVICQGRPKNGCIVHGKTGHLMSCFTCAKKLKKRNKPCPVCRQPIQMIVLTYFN

Turning to `CC(C)C[C@H](NC(=O)CNC(=O)c1cc(Cl)ccc1Cl)C(=O)NCCCCCCC(=O)Nc1ccc(C(=O)/C=C/c2ccc(I)cc2)cc1` [TIBC-CANDDY_MLN], where the note is “intraperitoneal 50 or 100 mg/kg body weight, heart”, the “amount of MDM2 protein in heart” value was “reduced in a concentration dependent manner”. For the same molecule, the “amount of MDM2 protein in kidneys” value (intraperitoneal 50 or 100 mg/kg body weight, kidneys) was “reduction of the target was not found”. Further, under “intraperitoneal 50 or 100 mg/kg body weight, spleen”, the “amount of MDM2 protein in spleen” value is given as “reduced in a concentration dependent manner”. Also, the “amount of MDM2 protein in liver” value (intraperitoneal, only at a dose of 100 mg/kg body weight, liver) is reported as “reduced slightly”.

(Values after patent US20190369111A1, “MOLECULAR KINETICS EVALUATION METHOD AND SCREENING METHOD” (Tokyo University of Science Foundation, priority 2016, published 2019).)
